The values below come from US12679878B2, “CRF2 receptor agonists and their use in therapy” (SANOFI, priority 2020, dated 2026).

Molecules are shown by their SMILES. Starred links: 1 amine or outer side, 2 acyl side, 3 side chain; linkers in the order of their positions; H or OH if unused. Non-standard residues stand in square brackets, D forms with d. Residues, ends and D or L forms follow the SMILES beside them. Groups on a side chain read outwards from the residue. *: point of attachment. C18 diacid = O=C(O)CCCCCCCCCCCCCCCCC(=O)*; γGlu = O=C(O)[C@H](CCC(=O)[*:2])N[*:1]; Palmitoyl = CCCCCCCCCCCCCCCC(=O)*; AEEA = NCCOCCOCC(=O)O; Aib = CC(C)(N)C(=O)O

The test deals with T1, human CRF2α receptor (Homo sapiens, UniProt Q13324).
T1 construct: expressed in transfected cells; host or cells: TeloHEAC
T1 sequence (Q13324 1-411): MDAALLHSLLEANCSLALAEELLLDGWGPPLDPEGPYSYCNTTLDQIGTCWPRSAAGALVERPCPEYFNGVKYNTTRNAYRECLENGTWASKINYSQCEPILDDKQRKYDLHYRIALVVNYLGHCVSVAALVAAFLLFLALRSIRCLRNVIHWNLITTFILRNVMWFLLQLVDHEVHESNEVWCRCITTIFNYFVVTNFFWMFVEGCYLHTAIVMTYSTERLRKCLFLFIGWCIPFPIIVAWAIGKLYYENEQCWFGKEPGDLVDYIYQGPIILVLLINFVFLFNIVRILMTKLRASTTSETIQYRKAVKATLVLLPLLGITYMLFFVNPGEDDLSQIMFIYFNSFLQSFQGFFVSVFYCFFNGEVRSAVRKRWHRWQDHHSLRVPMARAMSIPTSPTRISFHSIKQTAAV
The test is described as follows: cAMP agonism at human CRF2 α receptor in TeloHEAC cells (Example 7). Particulars: cAMP HTRF, TeloHEAC cells stably expressing human CRF2 α, 0% HSA; read-out: EC50 [nM], 0% HSA. Format: cell-based. How it is done:
Agonism of compounds for human corticotropin-releasing factor 2α (CRF2 α receptor) was determined by functional assays measuring CAMP response of a TeloHEAC cell line stably expressing human CRF2 α receptor.
Cells were grown in a T175 culture flask placed at 37° C. to near confluence in medium (DMEM/10% FBS) and collected in 2 ml vials in cell culture medium containing 10% DMSO in a concentration of 10-50 million cells/ml. Each vial contained 1.8 ml cells. The vials were slowly frozen to −80° C. in isopropanol and then transferred in liquid nitrogen for storage. Prior to use, frozen cells were thawed quickly at 37° C. and washed (5 min at 900 rpm) with 20 ml cell buffer (1×HBSS; 20 mM HEPES; 0% or 0.1% HSA). Cells were resuspended in assay buffer (cell buffer plus 2 mM IBMX) and adjusted to a cell density of 1 million cells/ml. For measurement, 5 μl cells (final […]) and 5 μL of test compound were added to a 384-well plate, followed by incubation for 30 minutes at room temperature.
The CAMP content of cells was determined using a kit from Cisbio Corp. (cat. no. 62AM4PEC) based on HTRF (Homogenous Time Resolved Fluorescence). After addition of HTRF reagents diluted in lysis buffer (kit components), the plates were incubated for 1 h, followed by measurement of the fluorescence ratio at 665/620 nm. The percent activity value (E %) was calculated by setting 1000 nM of urocortin 2 (UCN2) as 100%. The in vitro potency of the compounds was quantified by determining the concentrations that caused 50% activation of maximal response (EC50).

Take `CCCCCCCCCCCCCCCC(=O)N[C@@H](CCC(=O)NCCCC[C@H](NC(=O)[C@H](CC(C)C)NC(=O)[C@H](CCCCN)NC(=O)[C@@H](NC(=O)[C@@H]1CCCN1C(=O)[C@H](NC(=O)[C@H](CC(=O)O)NC(=O)[C@H](CC(C)C)NC(=O)[C@H](CO)NC(=O)[C@H](CC(C)C)NC(=O)[C@@H](NC(=O)[C@@H](N)[C@@H](C)CC)C(C)C)C(C)C)[C@@H](C)O)C(=O)N[C@@H](CCC(N)=O)C(=O)N[C@@H](CCCCN)C(=O)N[C@@H](CC(C)C)C(=O)N[C@@H](CC(C)C)C(=O)N[C@@H](CCCCN)C(=O)N[C@@H](CCC(N)=O)C(=O)N[C@@H](CCC(=O)O)C(=O)N[C@@H](CCCNC(=N)N)C(=O)N[C@@H](CCC(N)=O)C(=O)N[C@@H](CCCNC(=N)N)C(=O)N[C@@H](CCCCN)C(=O)N[C@@H](CCC(=O)O)C(=O)N[C@@H](CCCNC(=N)N)C(=O)N[C@@H](CCC(=O)O)C(=O)N[C@@H](CCC(N)=O)C(=O)N[C@@H](C)C(=O)N[C@@H](CCC(=O)O)C(=O)N[C@@H](CCCCN)C(=O)N[C@@H](CC(N)=O)C(=O)NC(C)(C)C(=O)N[C@@H](CCCNC(=N)N)C(=O)N[C@H](C(=O)N[C@@H](CC(C)C)C(=O)N[C@@H](CCC(=O)O)C(=O)N[C@@H](CCCNC(=N)N)C(=O)N[C@H](C(N)=O)C(C)C)[C@@H](C)CC)C(=O)O` [compound 31] (H-IVLSLD[dV]PTKLK([γGlu-Palmitoyl])QKLLKQERQRKEREQAEKN[Aib]RILERV-NH2; N-terminus assumed): the EC50 (commonly the concentration at which the effect is half-maximal) stood at 0.01 nM.

On to `CCCCCCCCCCCCCCCC(=O)N[C@@H](CCC(=O)NCCCC[C@H](NC(=O)[C@H](CC(C)C)NC(=O)[C@H](CCCCN)NC(=O)[C@@H](NC(=O)[C@@H]1CCCN1C(=O)[C@H](NC(=O)[C@H](CC(=O)O)NC(=O)[C@H](CC(C)C)NC(=O)[C@H](CO)NC(=O)[C@H](CC(C)C)NC(=O)[C@@H](NC(=O)[C@@H](N)[C@@H](C)CC)C(C)C)C(C)C)[C@@H](C)O)C(=O)N[C@@H](CCC(N)=O)C(=O)N[C@@H](CCCCN)C(=O)N[C@@H](CC(C)C)C(=O)N[C@@H](CC(C)C)C(=O)N[C@@H](CCCCN)C(=O)N[C@@H](CCC(N)=O)C(=O)N[C@@H](CCC(=O)O)C(=O)N[C@@H](CCCNC(=N)N)C(=O)N[C@@H](CCC(N)=O)C(=O)N[C@@H](CCCNC(=N)N)C(=O)N[C@@H](CCCCN)C(=O)N[C@@H](CCC(=O)O)C(=O)N[C@@H](CCCNC(=N)N)C(=O)N[C@@H](CCC(=O)O)C(=O)N[C@@H](CCC(N)=O)C(=O)N[C@@H](C)C(=O)N[C@@H](CCC(=O)O)C(=O)N[C@@H](CCCCN)C(=O)N[C@@H](CC(N)=O)C(=O)N[C@H](C(=O)N[C@@H](CCCNC(=N)N)C(=O)N[C@H](C(=O)N[C@@H](CC(C)C)C(=O)N[C@@H](CCC(=O)O)C(=O)N[C@@H](CCCNC(=N)N)C(=O)N[C@H](C(N)=O)C(C)C)[C@@H](C)CC)[C@@H](C)O)C(=O)O` [compound 33] (H-IVLSLD[dV]PTKLK([γGlu-Palmitoyl])QKLLKQERQRKEREQAEKNTRILERV-NH2), for which the EC50 was found to be 0.2 nM.

Consider `CC[C@H](C)[C@H](NC(=O)[C@H](CCC(N)=O)NC(=O)[C@H](CCCCN)NC(=O)[C@H](CC(N)=O)NC(=O)[C@@H](NC(=O)[C@H](CCCCN)NC(=O)[C@H](C)NC(=O)[C@H](CCCCN)NC(=O)[C@H](CCC(N)=O)NC(=O)[C@H](CCCNC(=N)N)NC(=O)[C@H](CCC(N)=O)NC(=O)[C@H](CCCCN)NC(=O)[C@H](CCCCN)NC(=O)[C@H](CCC(N)=O)NC(=O)[C@H](CCCCN)NC(=O)[C@H](CCC(=O)O)NC(=O)[C@H](CCC(N)=O)NC(=O)[C@H](CCCCN)NC(=O)[C@H](CC(C)C)NC(=O)[C@H](CC(C)C)NC(=O)[C@H](CCCCN)NC(=O)[C@H](CCC(N)=O)NC(=O)[C@H](CCCCNC(=O)COCCOCCNC(=O)COCCOCCNC(=O)CC[C@H](NC(=O)CCCCCCCCCCCCCCCCC(=O)O)C(=O)O)NC(=O)[C@@H](NC(=O)[C@H](CCCCN)NC(=O)[C@@H](NC(=O)[C@@H]1CCCN1C(=O)[C@@H](NC(=O)[C@H](CC(=O)O)NC(=O)[C@H](CC(C)C)NC(=O)[C@H](CO)NC(=O)[C@H](CC(C)C)NC(=O)[C@@H](NC(=O)[C@@H](N)Cc1ccccc1)[C@@H](C)O)C(C)C)[C@@H](C)O)[C@@H](C)CC)[C@@H](C)O)C(=O)N[C@@H](CC(C)C)C(=O)N[C@@H](CCC(=O)O)C(=O)N[C@@H](CCC(N)=O)C(=O)N[C@H](C(N)=O)C(C)C` [compound 34] (H-FTLSLDVPTKIK([AEEA-AEEA-γGlu-C18 diacid])QKLLKQEKQKKQRQKAKTNKQILEQV-NH2; N-terminus assumed), for which the EC50 stood at 6.88 nM.

In the case of `CC[C@H](C)[C@H](N)C(=O)N[C@H](C(=O)N[C@@H](CC(C)C)C(=O)N[C@@H](CO)C(=O)N[C@@H](CC(C)C)C(=O)N[C@@H](CC(=O)O)C(=O)N[C@H](C(=O)N1CCC[C@H]1C(=O)N[C@H](C(=O)N[C@@H](CCCCN)C(=O)N[C@@H](CC(C)C)C(=O)N[C@@H](CCCCNC(=O)COCCOCCNC(=O)COCCOCCNC(=O)CC[C@H](NC(=O)CCCCCCCCCCCCCCCCC(=O)O)C(=O)O)C(=O)N[C@@H](CCC(N)=O)C(=O)N[C@@H](CCCCN)C(=O)N[C@@H](CC(C)C)C(=O)N[C@@H](CC(C)C)C(=O)N[C@@H](CCCCN)C(=O)N[C@@H](CCC(N)=O)C(=O)N[C@@H](CCC(=O)O)C(=O)N[C@@H](CCCNC(=N)N)C(=O)N[C@@H](CCC(N)=O)C(=O)N[C@@H](CCCNC(=N)N)C(=O)N[C@@H](CCCCN)C(=O)N[C@@H](CCC(=O)O)C(=O)N[C@@H](CCCNC(=N)N)C(=O)N[C@@H](CCC(N)=O)C(=O)N[C@@H](CCC(N)=O)C(=O)N[C@@H](C)C(=O)N[C@@H](CCC(=O)O)C(=O)N[C@H](C(=O)N[C@@H](CC(N)=O)C(=O)N[C@@H](CCCCN)C(=O)N[C@@H](CCCNC(=N)N)C(=O)N[C@H](C(=O)N[C@@H](CC(C)C)C(=O)N[C@@H](CCC(=O)O)C(=O)N[C@@H](CCCNC(=N)N)C(=O)N[C@H](C(N)=O)C(C)C)[C@@H](C)CC)[C@@H](C)O)[C@@H](C)O)C(C)C)C(C)C` [compound 37] (H-IVLSLDVPTKLK([AEEA-AEEA-γGlu-C18 diacid])QKLLKQERQRKERQQAETNKRILERV-NH2; N-terminus assumed), the EC50 was determined as 1.6 nM.

Regarding `CC[C@H](C)[C@H](N)C(=O)N[C@H](C(=O)N[C@@H](CC(C)C)C(=O)N[C@@H](CO)C(=O)N[C@@H](CC(C)C)C(=O)N[C@@H](CC(=O)O)C(=O)N[C@H](C(=O)N1CCC[C@H]1C(=O)N[C@H](C(=O)N[C@@H](CCCCN)C(=O)N[C@@H](CC(C)C)C(=O)N[C@@H](CCCCNC(=O)COCCOCCNC(=O)COCCOCCNC(=O)CC[C@H](NC(=O)CCCCCCCCCCCCCCCCC(=O)O)C(=O)O)C(=O)N[C@@H](CCC(N)=O)C(=O)N[C@@H](CCCCN)C(=O)N[C@@H](CC(C)C)C(=O)N[C@@H](CC(C)C)C(=O)N[C@@H](CCCCN)C(=O)N[C@@H](CCC(N)=O)C(=O)N[C@@H](CCC(=O)O)C(=O)N[C@@H](CCCNC(=N)N)C(=O)N[C@@H](CCC(N)=O)C(=O)N[C@@H](CCCNC(=N)N)C(=O)NC(C)(C)C(=O)N[C@@H](CCC(=O)O)C(=O)N[C@@H](CCCNC(=N)N)C(=O)N[C@@H](CCC(N)=O)C(=O)N[C@@H](CCC(N)=O)C(=O)N[C@@H](C)C(=O)N[C@@H](CCC(=O)O)C(=O)N[C@H](C(=O)N[C@@H](CC(N)=O)C(=O)N[C@@H](CCCCN)C(=O)N[C@@H](CCCNC(=N)N)C(=O)N[C@H](C(=O)N[C@@H](CC(C)C)C(=O)N[C@@H](CCC(=O)O)C(=O)N[C@@H](CCCNC(=N)N)C(=O)N[C@H](C(N)=O)C(C)C)[C@@H](C)CC)[C@@H](C)O)[C@@H](C)O)C(C)C)C(C)C` [compound 38] (H-IVLSLDVPTKLK([AEEA-AEEA-γGlu-C18 diacid])QKLLKQERQR[Aib]ERQQAETNKRILERV-NH2), the EC50 came out at 20.9 nM.
